Target: T1, glucosidase I (Homo sapiens, UniProt Q13724)
T1 construct: endogenous in cells; host or cells: HL60 cells
T1 sequence (Q13724 1-837): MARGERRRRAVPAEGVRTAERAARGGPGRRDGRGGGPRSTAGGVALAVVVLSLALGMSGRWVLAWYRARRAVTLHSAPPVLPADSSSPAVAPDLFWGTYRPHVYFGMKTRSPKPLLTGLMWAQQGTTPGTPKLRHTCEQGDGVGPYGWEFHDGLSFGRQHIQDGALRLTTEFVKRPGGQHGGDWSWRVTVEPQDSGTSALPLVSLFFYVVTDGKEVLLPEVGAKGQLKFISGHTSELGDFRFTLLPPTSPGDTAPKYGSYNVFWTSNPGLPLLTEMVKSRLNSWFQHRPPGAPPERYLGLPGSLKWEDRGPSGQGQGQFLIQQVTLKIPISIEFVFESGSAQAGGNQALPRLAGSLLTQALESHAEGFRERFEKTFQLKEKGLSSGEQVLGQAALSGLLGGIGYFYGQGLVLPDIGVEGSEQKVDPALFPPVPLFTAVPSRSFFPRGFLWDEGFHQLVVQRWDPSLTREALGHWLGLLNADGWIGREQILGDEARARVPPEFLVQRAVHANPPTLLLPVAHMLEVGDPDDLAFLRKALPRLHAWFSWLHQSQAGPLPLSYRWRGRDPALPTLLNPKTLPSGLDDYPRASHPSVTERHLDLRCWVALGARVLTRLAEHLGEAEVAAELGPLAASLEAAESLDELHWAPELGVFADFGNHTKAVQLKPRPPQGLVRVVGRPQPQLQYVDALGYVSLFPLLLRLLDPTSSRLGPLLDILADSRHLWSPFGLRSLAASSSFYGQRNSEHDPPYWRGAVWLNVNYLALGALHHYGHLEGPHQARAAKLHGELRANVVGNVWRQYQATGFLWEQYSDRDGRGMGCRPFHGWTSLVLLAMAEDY
Test: Inhibition of glucosidase I in HL60 cells, free oligosaccharide (G3M5N) analysis by NP-HPLC
Type: cell-based
Parameters: concentration of maximal glucosidase I inhibition in cells: unit not given here
Conditions: 24 h
Procedure: The effect of an ER-glucosidase inhibitor on cells was evaluated using an assay method by modifying known methods. (H. R. Mellor et al., Cellular Effects of Deoxynojirimycin Analogues: Inhibition of N-Linked Oligosaccharide Processing and Generation of Free Glucosylated Oligosaccharides, 381 Biochem. J. 867-875 (2004). The detection of free oligosaccharides following imino sugar treatment to generate misfolded protein that is degraded in the cytosol is an accurate measure of cell ER entry and inhibition of glycoprotein processing of α-glucosidases I and II by imino sugars.
Cells were cultured to high density (×10^7 cells/ml) prior to growth in fresh medium containing NB-DNJ at varying concentrations. The cells were seeded at a lower density so as to achieve a high density at the end of the incubation period. […] The conditions for extraction of FOS were determined to maximize recovery of FOS. […]
ConA-Sepharose purified 2-AA-labeled oligosaccharides were separated by NP-HPLC using a 4.6×250 mm TSKgel Amide-80 column (Anachem, Luton, UK) with slight modifications to known methods. (D. C. Neville, et al.) The chromatography system consisted of a Waters Alliance 2695 separations module and an in-line Waters 474 fluorescence detector set at an excitation wavelength of 360 nm and emission wavelength of 425 nm. […]

concentration of maximal glucosidase I inhibition in cells (G3M5N): 50-100 ρM
more potent at inhibiting glucosidase I than NB-DNJ in cells (estimation of G3M5N): 20-50 times
SMILES: [N-]=[N+]=Nc1ccc(NCCCCCCN2C[C@H](O)[C@@H](O)[C@H](O)[C@H]2CO)c([N+](=O)[O-])c1 [NAP-DNJ, N—(N′-{4′azido-2′-nitrophenyl)-6-aminohexyl)-deoxynojirimycin]

Reference: US8975280B2, “Deoxynojirimycin and D-arabinitol analogs and methods of using” (The Chancellor, Masters and Scholars of The University of …, priority 2006, dated 2015)
